From patent US11505521B2 (Biothea Pharma, Inc., priority 2018, dated 2022)
≈ marks a conversion by molar mass, not a printed value.

Experiments:
[1] = physchem
Description: The tests were conducted using Sartorius balances (Model SQP) and a potentiometric titrator (Brand: Methrom, Model No. 905 Titrando). 0.17 g of the sample was weighed and transferred into a 50 mL volumetric flask with the remainder of the volume comprising deonized water. The solution was mixed. The solution was titrated with a 0.1 mol/L NaOH solution using a pH indicator to indicate the end point.

[2] = sublingual tablet of Example 3, 10 mg epinephrine base, receptor pH 7.4, 37° C.
Description: The in-vitro permeability of the pharmaceutical compositions of Example 3 were tested. The tests were conducted using drug transdermal diffusion test instruments (Brand Huanghai, Model No. RJY-6B), Sartorius balances (Model SQP), an INESA pH meter (Model PHS-3E), a Thermo HPLC (UltiMate 3000 System, UV Wavelength: 205 nm), and Phenomenex Luna columns (5 μm C18 (2), 4.6×250 mm). The column temperature was 40° C. and the autosampler temperature was room temperature. The injection volume was 5 μL.
(§1) Mobile Phase A was prepared by weighing 4.0 g tetramethylammonium bisulfate (MERYER, Batch No. 77957139) and 1.1 sodium 1-heptasulfonate (Admas-beta, Batch No. P1343755), and transferring the materials to a flask. 2 mL of 0.1 mol/L EDTA solution (Brand: Sinopharm Chemical Reagent Co., Ltd., Batch No. 20150410) was added to the flask and the volume was adjusted to 950 mL using water. The solution was mixed and adjusted to a pH of 3.5 with 0.1N sodium hydroxide solution (Brand: Enox, Batch No. 20161201). Mobile Phase B was prepared using methanol. The isocratic elution was used in a proportion of A/B of 85/15. The run time was 10 minutes.
The in vitro diffusion of epinephrine salts were evaluated using Franz cells with an OD of 20 mm and reservoir volume of 7 mL. Dialysis membranes (Spectra/Por® dialysis membranes with 1,000 Da MWCO) were used to simulate sublingual mucous membrane in the vitro permeability tests. The assay content of the active components was detected in receiving pools. A receptor chamber with a magnetic stirrer was filled with phosphate buffer solution (pH 7.4) as the diffusion medium. The water bath was set at 37° C., and water was circulated in the Franz cells.
Each tablet was placed at the center of the donor chamber on the membrane at T0, and 2 mL of the artificial saliva (Brand: Biomart, Brand No. GL0305) was added to facilitate tablet disintegration and dissolution. Aliquots of 1 mL were withdrawn from the receptor chamber at 10, 30, 60, 90, and 120 min. The volumes withdrawn were replenished with fresh medium. Samples were transferred to HPLC vials for HPLC analysis.

[3] = physchem; conditions: water; for Solubility: 25±2° C.
Description: (§2) The tests were conducted using Sartorius balances (Model SQP), a Thermo HPLC (UltiMate 3000 System, UV Wavelength: 205 nm), and Phenomenex Luna columns (5 μm C18 (2), 4.6×250 mm). The column temperature was 40° C. and the autosampler temperature was room temperature. The injection volume was 5 μL.
as §1, with “using ethanol.” for “using methanol.”, “was 8” for “was 10”
A standard solution was used comprising 10 mg of the standard dissolved in 10 mL of water. The test solution solutions were prepared and water was added at 25±2° C. Every 5 minutes, the solution was sonicated for 30 seconds. The dissolution was observed within 30 minutes to make sure the solution was saturated. The solution was filtered through a 0.45 μm membrane and the solution was diluted to test.

[4] = physchem; conditions: n-octanol / pH 3.47 buffer
Description: as §2
as §1, with “using ethanol.” for “using methanol.”, “was 8” for “was 10”
A hydrogen disodium phosphate solution was prepared by weighing 7.1 g of hydrogen disodium phosphate (Brand: Sinopharm Chemical Reagent Co., Ltd., Batch No. 20150910). A citric acid solution was prepared by weighing 5.25 g of hydrated citric acid (Brand: General-Reagent, Batch No. 5949-29-1) and dissolving it in 1000 mL of water. A pH 3.47 buffer solution was prepared by adjusting the pH of the hydrogen disodium phosphate solution to 3.47 with the citric acid solution. An n-octanol buffer solution was prepared by mixing 100 mL of n-octanol (Brand: Chinasun Specialty Products Co., Ltd., Batch No. 20160601) and 100 mL of the pH 3.47 buffer solution, vibrated for 24 hours, which sat for an hour to separate the n-octanol phase and the pH 3.47 buffer phase.
10 mg of the sample was dissolved in 10 mL of the saturated n-octanol solution and mixed completely. 10 mL of the saturated pH 3.47 buffer solution was added and vortexed at 3000 r/min for 1 hour. 1 mL of solution was pipetted from the n-octanol and pH 3.47 phase after an hour. A standard solution was prepared containing 1 mg/mL of the standard in diluent. An LOQ solution was prepared from about 0.1% of the standard solution. An n-octanol phase solution was diluted with 1 mL of methanol to test. The pH 3.47 phase solution was injected directly. The partition coefficient was calculated using the following formula:
[formula] wherein Co is the equilibrium concentration of solute in oil phase, and Cw is the equilibrium concentration of solute in water phase.

Compound | pKa ([1]; deionized water) | Diffusion content (%) 120 min [2] [%] | solubility at 30 min ([3]; 25 °C, thermodynamic from solid) [mg/mL] | LogP ([4]; pH 3.47) | pKa ([1]; titrated with 0.1 mol/L NaOH) | Solubility [3] [mg/mL] | LogP [4]
CNC[C@H](O)c1ccc(O)c(O)c1 [epinephrine bitartrate] | 4.2 | 67.8 | 827 | -2.95 |  |  | 
CNC[C@H](O)c1ccc(O)c(O)c1 [epinephrine malonate] |  | 57.5 |  |  | 5.47 | 1142.7 (≈ 6240 mM) | −3.00
epinephrine maleate |  | 63.5 |  |  | 6.12 | 82.7 | −3.01
